Experimental data: ChEMBL document CHEMBL1201862, “PubChem BioAssay data set” (2004)
Active and inactive are the calls of the source.

What was measured:
[1] = HEK293T cytotoxicity, dose response, cytotoxicity control for miR-122 modulator project, cell-based, inhibitor set, cherry-pick, set 2 (AID 720697); type: functional
[2] = cytotoxicity in OVCAR8 ovarian cancer cells, dose response, PAX8 project, cell-based, plate reader, dry powder samples (AID 743197); type: functional; details: OVCAR-8
[3] = NIH:OVCAR-3 ovarian cancer cell cytotoxicity, dose response, PAX8 inhibitor project, plate reader, dry powder samples (AID 743044); type: functional, cell-based
[4] = HEK293T cytotoxicity, dose response, cytotoxicity control for miR-122 modulator project, cell-based, activator set, cherry-pick (AID 720690); type: functional;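 note: HEK293T human cells scored for general mammalian cytotoxicity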
[5] = IGROV1 ovarian cancer cell cytotoxicity, dose response, PAX8 inhibitor project, plate reader, dry powder samples (AID 743043); type: functional, cell-based; details: IGROV-1
[6] = miR-122 activators in hepatoma reporter cells, dose response, cell-based, Huh7 psiCHECK-miR122, Renilla luciferase, cherry-picked (AID 651956); type: functional;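 note: huh7 hepatoma cells stably carrying a psiCHECK-2 miR-122 sensor plasmid; renilla luciferase signal reporting endogenous miR-122 activity after 48 h compound exposure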
[7] = cytotoxicity in OVCAR4 cells, dose response, cytotoxicity control for PAX8 inhibitor project, cell-based, plate reader, dry powder, SA11 (AID 743150); type: functional; details: OVCAR-4
[8] = cytotoxicity dependent on PAX8, dose response, cell-based, plate reader, dry powder (AID 743049); type: functional
[9] = cytotoxicity in OV-90 ovarian cancer cells, dose response, PAX8 inhibitor project, cell-based, plate reader, dry powder, SA8 (AID 743149); type: functional
[10] = molecular target: Paired box protein Pax-8 (Homo sapiens, UniProt Q06710); assay: inhibitors of PAX8-driven TPO luciferase reporter, dose response, RMG-I cells, cherry-pick (AID 687027); type: functional, cell-based;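 note: luciferase reporter driven by Pax8 target thyroperoxidase promoter measured by SteadyGlo luminescence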
Chain of Paired box protein Pax-8 (Q06710 whole entry): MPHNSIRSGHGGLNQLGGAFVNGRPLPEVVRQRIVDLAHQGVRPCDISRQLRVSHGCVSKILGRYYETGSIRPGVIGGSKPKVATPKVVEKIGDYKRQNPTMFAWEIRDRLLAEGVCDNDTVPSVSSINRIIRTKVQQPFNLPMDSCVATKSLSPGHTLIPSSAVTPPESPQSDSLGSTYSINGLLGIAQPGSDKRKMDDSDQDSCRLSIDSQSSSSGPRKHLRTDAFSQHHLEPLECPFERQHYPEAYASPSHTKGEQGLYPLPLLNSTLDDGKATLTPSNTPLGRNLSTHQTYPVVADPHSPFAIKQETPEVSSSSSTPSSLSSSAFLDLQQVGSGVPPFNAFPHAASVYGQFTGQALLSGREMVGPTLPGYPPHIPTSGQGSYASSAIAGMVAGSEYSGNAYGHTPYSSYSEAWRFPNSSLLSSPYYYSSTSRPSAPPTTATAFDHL

[11] = cytotoxicity in COV362 ovarian cancer cells, dose response, cytotoxicity control for PAX8 inhibitor project, cell-based, plate reader, dry powder, SA12 (AID 743144); type: functional
[12] = PAX2 cell-based inhibition, dose response, selectivity assay for PAX8 inhibitor project, plate reader, dry powder samples (AID 743048); type: functional;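 note: HEK293 cells carrying a WT1 promoter luciferase reporter driven by expressed Pax2; potency is for inhibition of Pax2 driven reporter signal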
[13] = PAX5 activity inhibitors, dose response, selectivity assay for PAX8 inhibitor project, cell-based, plate reader, dry powder samples (AID 743047); type: functional;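 note: HEK293 cells carrying a Pax5 driven CD19 promoter luciferase reporter; potency of inhibitors that lower reporter luminescence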
[14] = cytotoxicity in COV434 cells, dose response, cytotoxicity control for PAX8 inhibitor project, cell-based, plate reader, dry powder, SA7 (AID 743145); type: functional
[15] = cells; type: functional, cell-based
[16] = molecular target: T1, Trace amine-associated receptor 1 (Homo sapiens, UniProt Q96RJ0); assay: Counterscreen for agonists of the human trace amine associated receptor 1 (hTAAR1): Fluorescence-based cell-based high throughput dose response assay to identify hTAAR1 agonist that also desensitize TAAR1 receptor response.; type: functional
T1 sequence (Q96RJ0 whole entry): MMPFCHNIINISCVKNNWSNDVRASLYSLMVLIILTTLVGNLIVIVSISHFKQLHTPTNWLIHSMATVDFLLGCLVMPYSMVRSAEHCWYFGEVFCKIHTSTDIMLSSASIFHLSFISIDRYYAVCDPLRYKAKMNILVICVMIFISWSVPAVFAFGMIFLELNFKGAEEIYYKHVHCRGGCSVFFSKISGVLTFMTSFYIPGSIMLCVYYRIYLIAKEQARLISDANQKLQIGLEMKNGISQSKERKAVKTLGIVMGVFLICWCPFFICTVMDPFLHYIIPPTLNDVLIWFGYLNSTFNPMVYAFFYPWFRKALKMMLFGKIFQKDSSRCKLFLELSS

[17] = cells; type: functional, cell-based; remark: listed apart in the source
[18] = molecular target: T1, Trace amine-associated receptor 1; assay: Fluorescence-based cell-based high throughput dose response assay to identify agonists of the human trace amine associated receptor 1 (TAAR1).; type: functional
[19] = molecular target: Potassium channel subfamily K member 9 (Homo sapiens, UniProt Q9NPC2); assay: TASK3 (KCNK9) channel inhibitors, thallium flux, SAR follow-up, selectivity assay for TASK1 inhibitor project, cell-based, FluxOR thallium flux, concentration-response (AID 652211); type: functional;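 note: potency is for inhibitors of the channel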
Chain of Potassium channel subfamily K member 9 (Q9NPC2 whole entry): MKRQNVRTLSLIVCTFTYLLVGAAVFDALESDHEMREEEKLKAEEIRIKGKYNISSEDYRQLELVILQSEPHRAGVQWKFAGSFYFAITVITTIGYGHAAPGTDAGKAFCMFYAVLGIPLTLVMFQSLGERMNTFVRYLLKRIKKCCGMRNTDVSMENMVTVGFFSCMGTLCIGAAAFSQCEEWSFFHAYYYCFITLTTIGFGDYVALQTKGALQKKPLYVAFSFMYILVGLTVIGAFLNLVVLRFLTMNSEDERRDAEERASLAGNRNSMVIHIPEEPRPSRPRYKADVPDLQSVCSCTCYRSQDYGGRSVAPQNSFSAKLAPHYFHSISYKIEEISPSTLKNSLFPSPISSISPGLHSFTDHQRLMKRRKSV

[20] = molecular target: T2, Streptokinase A (Streptococcus pyogenes serotype M1, UniProt P10520); assay: S. pyogenes streptokinase expression inhibitors, potency, dose response, plasminogen activation absorbance, OD405 (AID 1914); type: functional, Streptococcus pyogenes M1 GAS;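 note: secreted streptokinase activity via plasminogen activation per viability signal from cell pellet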
T2 sequence (P10520 whole entry): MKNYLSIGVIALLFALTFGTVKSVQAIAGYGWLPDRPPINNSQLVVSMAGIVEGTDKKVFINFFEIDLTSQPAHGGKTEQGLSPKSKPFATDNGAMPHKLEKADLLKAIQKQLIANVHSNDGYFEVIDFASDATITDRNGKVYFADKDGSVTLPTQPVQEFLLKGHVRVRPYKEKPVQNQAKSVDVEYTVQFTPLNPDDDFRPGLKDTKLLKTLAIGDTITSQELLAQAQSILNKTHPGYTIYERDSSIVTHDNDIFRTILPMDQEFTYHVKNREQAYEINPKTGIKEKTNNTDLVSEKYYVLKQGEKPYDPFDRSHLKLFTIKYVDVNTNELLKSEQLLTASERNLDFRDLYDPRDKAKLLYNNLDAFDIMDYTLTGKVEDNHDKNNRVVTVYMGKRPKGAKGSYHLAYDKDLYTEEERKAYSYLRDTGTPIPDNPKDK

[21] = system: Streptococcus sp. 'group A'; assay: growth inhibition of control SK(-) GAS strain, dose response, counter-screen for streptokinase expression inhibitor project, luminescence, kanamycin, BacTiterGlo, confirmation (AID 1900); type: functional, organism-based
[22] = molecular target: T3, Protein skinhead-1 (Caenorhabditis elegans, UniProt P34707); type: functional
T3 sequence (P34707 whole entry): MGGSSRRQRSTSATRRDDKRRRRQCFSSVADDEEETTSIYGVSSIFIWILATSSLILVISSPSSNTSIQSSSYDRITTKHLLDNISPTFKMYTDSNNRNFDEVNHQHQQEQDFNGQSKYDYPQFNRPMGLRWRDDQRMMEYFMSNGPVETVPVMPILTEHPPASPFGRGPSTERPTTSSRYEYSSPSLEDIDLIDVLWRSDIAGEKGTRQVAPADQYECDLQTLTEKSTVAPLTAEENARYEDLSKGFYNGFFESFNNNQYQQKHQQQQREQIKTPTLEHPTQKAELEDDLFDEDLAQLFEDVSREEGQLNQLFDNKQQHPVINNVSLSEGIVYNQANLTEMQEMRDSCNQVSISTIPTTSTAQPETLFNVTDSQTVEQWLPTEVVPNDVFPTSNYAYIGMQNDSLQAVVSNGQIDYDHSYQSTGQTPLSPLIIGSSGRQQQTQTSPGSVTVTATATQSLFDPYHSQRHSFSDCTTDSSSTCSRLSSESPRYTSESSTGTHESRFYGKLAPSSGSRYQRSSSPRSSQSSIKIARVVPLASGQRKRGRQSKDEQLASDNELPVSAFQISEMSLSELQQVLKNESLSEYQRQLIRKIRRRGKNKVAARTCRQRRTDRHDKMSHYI

[23] = MC4R antagonists, dose response, counter-screen for LGR2 antagonist project, cell-based, plate reader, cherry pick (AID 743444); type: functional;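 note: transfected HEK 293 cells stimulated with alpha-MSH peptide; potency of inhibitors of the alpha-MSH evoked signal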
[24] = A549 cell cytotoxicity, dose response, cytotoxicity control, plate reader, cherry-pick, antagonist series (AID 743412); type: functional, cell-based
[25] = cells
[26] = LGR2 antagonists, dose response, cell-based, HEK293, CRE-luciferase reporter, cherry pick, set 2 (AID 743343); type: functional;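 note: transfected cells were stimulated with diluted bursicon conditioned medium after compound addition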
[27] = system: Streptococcus; assay: Group A Streptococcus viability loss, dose response, counter-screen for streptokinase expression inhibitor project, luminescence, BacTiterGlo (AID 1915); type: functional, organism-based;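 note: potency for reduction of bacterial viability or growth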
[28] = HepG2 cell cytotoxicity, dose response, cytotoxicity control, plate reader, cherry-pick, antagonist series (AID 743416); type: functional, cell-based
[29] = HEp-2 cell cytotoxicity, dose response, cytotoxicity control for RSV inhibitor project, HTS (AID 2410); type: functional; details: human respiratory syncytial virus

In the case of `C[C@H]1CCCCO[C@H](CN(C)Cc2ccccc2)[C@@H](C)CN([C@@H](C)CO)C(=O)c2cc(NC(=O)Nc3ccc(C(F)(F)F)cc3)ccc2O1`, the AC50 [1] is reported as 8.18 µM (active), the AC50 [2] is reported as 21.4 µM (active) and the AC50 [3] is reported as 22.8 µM (active). For the same molecule, the AC50 [4] was 11.3 µM (active), the AC50 [5] was 23.4 µM (active) and the AC50 [6] was 6.32 µM (active).
In the case of `COc1ccc(CN(C)C[C@H]2OCCCC[C@H](C)Oc3ccc(NC(=O)Nc4ccc(C(F)(F)F)cc4)cc3C(=O)N([C@@H](C)CO)C[C@H]2C)cc1`, the AC50 [7] is reported as 40.5 µM (active), the AC50 [8] is reported as 14.4 µM (active) and the AC50 [2] is reported as 22 µM (active). The AC50 [9] was 33.7 µM (active), the AC50 [10] was 5.98 µM (active) and the AC50 [11] was > 70 µM (inactive). For the same molecule, the AC50 [3] was 22.4 µM (active), the AC50 [12] was 31.6 µM (active) and the AC50 [13] was > 70 µM (inactive). The AC50 [14] was 34.4 µM (active) and the AC50 [5] was 25.1 µM (active).
With `O=C(NCCc1ccccc1)C1CCCN(S(=O)(=O)c2cccc3nsnc23)C1` (configuration not stated) the EC50 [15] was > 29.9 µM (inactive), the IC50 [16] was 2.2 µM (active) and the IC50 [17] was > 29.9 µM (inactive). The EC50 [18] was 0.669 µM (active).
With `Cc1cccc(C(=O)Nc2cccc(NC(=O)c3ccccc3C(C)C)c2)c1` the IC50 [19] was 2.39 µM (active).
With `Cc1ccc2nc(-c3ccc(N)cc3)sc2c1` the EC50 [20] was > 150 µM (not active), the EC50 [21] was > 150 µM (not active) and the IC50 [22] was > 100 µM (inactive). The AC50 [23] was 1.55 µM (active), the AC50 [24] was 51.3 µM (active) and the IC50 [25] was 29.7 µM (active). The AC50 [26] was 1.88 µM (active), the EC50 [27] was > 150 µM (not active) and the AC50 [28] was 50.6 µM (active). The CC50 [29] was > 50 µM (active).
